These results are taken from patent US11166924B2, “N-methyl-d-aspartate receptor allosteric modulators and methods for their use” (Qingdao Primedicine Pharmaceutical Company, Ltd., priority 2016, dated 2021).

One data set has as its target T1, GluN1^L135Q/GluN2A^F115S (Rattus norvegicus, UniProt P35439+Q00959, F115S/L135Q).
T1 construct: expressed in transfected cells; host or cells: HEK293
The data set can be described thus: Patch clamp in HEK293 cells expressing double mutant GluN1 L135Q/GluN2A F115S. In kind it is cell-based. The method, then:
(§1) Whole cell patch-clamp recordings were performed under voltage-clamp mode using an Axopatch 200B or 1D patch-clamp amplifier (Molecular Devices). Whole-cell currents were recorded at a holding potential of −60 mV unless indicated elsewhere, and signals were filtered at 2 kHz, digitized at 10 kHz (Digidata 1322A). Recording pipettes (3-5 MΩ) were filled with intracellular solution containing (mM): CsCl 140, HEPES 10, Mg-ATP 4, QX-314 5, pH 7.20; osmolarity, 290-295 mOsm. BAPTA (10 mM) was added in the intracellular solution (unless otherwise specified). The coverslips were continuously superfused with extracellular solution containing (mM): NaCl 140, KCl 5.4, HEPES 10, CaCl2 1.3, glucose 20, pH 7.4; osmolarity, 305-315 mOsm. NMDA-induced currents were applied by NMDA through perfusion fast-step (Warner Instruments). With perfusion fast-step system, NMDA application was achieved by using a two-square barrel glass tubing and depending on the age of the cultured neurons, CNQX (10 μM), TTX (0.5 μM) or BIC (10 μM) were added in the extracellular solution to minimize the activation of ionotropic glutamate receptors and voltage-gated sodium channels, respectively. All experiments were performed at room temperature. Recordings from at least six HEK293 cells/neurons were performed for all active compounds. […]
(In general: Patch clamp records ionic current or voltage across a cell membrane.)

In data set [1] the test system is cortical neurons. The data set can be described thus: NMDA-induced excitotoxicity (LDH release) in cortical neurons. In kind it is cell-based, rat. As to conditions: in the absence of NVP-AAM007; FIG. 16. As to the method:
Lactate dehydrogenase (LDH) is a cytoplasmic enzyme that can convert nicotinamide adenine dinucleotide (NAD) into NADH (the reduced form). LDH is released from cells into culture medium when the plasma membrane integrity is compromised. Therefore, the amount of released LDH represents the degree of cell death. In this study, the extracellular LDH level was measured using an in vitro toxicology assay kit obtained from Sigma-Aldrich (no. TOX-7). The basis of this LDH assay is as follows: (1) LDH reduces NAD into NADH, (2) the resulting NADH is then used in the stoichiometric conversion of a tetrazolium dye, and (3) the resulting colored compound is measured by a spectrophotometric microplate reader at a wavelength of 490 nm. The cell death rate was expressed as a ratio (%) between the absorbance of the treated group and that of the control group.
Cortical cultures were treated with Npam43, and assessed for NMDA-induced excitotoxicity after 20-24 hrs by measuring lactate dehydrogenase (LDH) release. […] LDH release was measured using an in vitro toxicology assay kit obtained from Sigma-Aldrich (no. TOX-7). The cell death rate was expressed as a ratio (%) between the absorbance of the treated group and that of the control group.
In general terms: LDH leaks from cells whose membrane has failed.

A further data set concerns the target T2, GluN1/GluN2A^P79A (Rattus norvegicus, UniProt P35439+Q00959, P79A).
T2 construct: expressed in transfected cells; host or cells: HEK293
The data set can be described thus: Patch clamp in HEK293 cells expressing mutant GluN1/GluN2A P79A. In kind it is cell-based. As to the method:
as §1

Data set [2] concerns cortical neurons. Description: H2O2-induced cytotoxicity in cortical neurons. In kind it is cell-based. As to conditions: in the absence of NVP-AAM007; FIG. 17.
For a further data set, the target named is T3, GluN1/GluN2A^F115S (Rattus norvegicus, UniProt P35439+Q00959, F115S).
T3 construct: expressed in transfected cells; host or cells: HEK293
The data set can be described thus: Patch clamp in HEK293 cells expressing mutant GluN1/GluN2A F115S. In kind it is cell-based. The method, then:
as §1

The target of a further data set is T4, GluN1^L135Q/GluN2A (Rattus norvegicus, UniProt P35439+Q00959, L135Q).
T4 construct: expressed in transfected cells; host or cells: HEK293
The data set can be described thus: Patch clamp in HEK293 cells expressing mutant GluN1 L135Q/GluN2A. In kind it is cell-based. As to the method:
as §1

Molecules are shown by their SMILES.

T3 sequence (Q00959 23-1464 F115S, other chains not shown): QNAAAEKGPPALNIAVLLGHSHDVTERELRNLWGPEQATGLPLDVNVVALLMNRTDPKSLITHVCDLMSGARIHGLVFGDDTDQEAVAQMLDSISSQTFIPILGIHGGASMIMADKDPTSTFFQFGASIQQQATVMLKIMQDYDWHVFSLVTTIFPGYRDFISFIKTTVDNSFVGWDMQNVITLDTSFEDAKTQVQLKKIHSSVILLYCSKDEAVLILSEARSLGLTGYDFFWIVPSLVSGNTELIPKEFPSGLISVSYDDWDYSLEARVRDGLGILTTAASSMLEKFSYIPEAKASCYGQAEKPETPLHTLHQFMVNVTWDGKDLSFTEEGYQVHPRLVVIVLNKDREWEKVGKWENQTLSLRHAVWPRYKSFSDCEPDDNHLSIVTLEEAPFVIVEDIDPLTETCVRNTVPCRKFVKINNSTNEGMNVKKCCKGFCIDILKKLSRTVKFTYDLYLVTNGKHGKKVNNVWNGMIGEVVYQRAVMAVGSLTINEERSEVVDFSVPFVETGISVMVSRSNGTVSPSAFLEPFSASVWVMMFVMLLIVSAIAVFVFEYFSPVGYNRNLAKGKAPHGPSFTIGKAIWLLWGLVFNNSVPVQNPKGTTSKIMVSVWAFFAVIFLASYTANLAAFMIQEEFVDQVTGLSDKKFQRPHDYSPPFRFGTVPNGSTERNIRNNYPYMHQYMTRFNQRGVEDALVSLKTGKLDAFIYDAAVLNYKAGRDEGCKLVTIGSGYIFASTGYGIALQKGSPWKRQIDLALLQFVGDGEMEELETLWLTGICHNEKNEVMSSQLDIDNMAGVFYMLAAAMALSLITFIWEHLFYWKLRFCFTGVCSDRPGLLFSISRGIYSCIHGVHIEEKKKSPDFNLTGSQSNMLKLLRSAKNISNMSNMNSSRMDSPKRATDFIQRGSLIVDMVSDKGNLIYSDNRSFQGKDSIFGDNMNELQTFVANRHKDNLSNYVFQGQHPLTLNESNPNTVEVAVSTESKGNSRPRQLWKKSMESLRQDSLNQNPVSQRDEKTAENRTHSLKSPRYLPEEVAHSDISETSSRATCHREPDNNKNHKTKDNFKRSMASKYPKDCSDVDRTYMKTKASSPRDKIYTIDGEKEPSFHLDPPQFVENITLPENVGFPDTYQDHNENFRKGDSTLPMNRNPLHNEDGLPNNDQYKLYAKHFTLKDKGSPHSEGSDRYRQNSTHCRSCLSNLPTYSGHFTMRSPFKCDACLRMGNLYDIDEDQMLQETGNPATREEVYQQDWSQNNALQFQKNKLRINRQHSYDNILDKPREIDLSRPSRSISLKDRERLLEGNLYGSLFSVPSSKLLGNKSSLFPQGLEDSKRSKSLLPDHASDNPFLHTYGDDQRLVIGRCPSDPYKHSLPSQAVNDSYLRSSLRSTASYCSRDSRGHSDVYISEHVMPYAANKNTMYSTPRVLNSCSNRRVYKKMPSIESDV
T1 sequence (Q00959 23-1464 F115S, other chains not shown): as above
T4 sequence (Q00959 23-1464, other chains not shown): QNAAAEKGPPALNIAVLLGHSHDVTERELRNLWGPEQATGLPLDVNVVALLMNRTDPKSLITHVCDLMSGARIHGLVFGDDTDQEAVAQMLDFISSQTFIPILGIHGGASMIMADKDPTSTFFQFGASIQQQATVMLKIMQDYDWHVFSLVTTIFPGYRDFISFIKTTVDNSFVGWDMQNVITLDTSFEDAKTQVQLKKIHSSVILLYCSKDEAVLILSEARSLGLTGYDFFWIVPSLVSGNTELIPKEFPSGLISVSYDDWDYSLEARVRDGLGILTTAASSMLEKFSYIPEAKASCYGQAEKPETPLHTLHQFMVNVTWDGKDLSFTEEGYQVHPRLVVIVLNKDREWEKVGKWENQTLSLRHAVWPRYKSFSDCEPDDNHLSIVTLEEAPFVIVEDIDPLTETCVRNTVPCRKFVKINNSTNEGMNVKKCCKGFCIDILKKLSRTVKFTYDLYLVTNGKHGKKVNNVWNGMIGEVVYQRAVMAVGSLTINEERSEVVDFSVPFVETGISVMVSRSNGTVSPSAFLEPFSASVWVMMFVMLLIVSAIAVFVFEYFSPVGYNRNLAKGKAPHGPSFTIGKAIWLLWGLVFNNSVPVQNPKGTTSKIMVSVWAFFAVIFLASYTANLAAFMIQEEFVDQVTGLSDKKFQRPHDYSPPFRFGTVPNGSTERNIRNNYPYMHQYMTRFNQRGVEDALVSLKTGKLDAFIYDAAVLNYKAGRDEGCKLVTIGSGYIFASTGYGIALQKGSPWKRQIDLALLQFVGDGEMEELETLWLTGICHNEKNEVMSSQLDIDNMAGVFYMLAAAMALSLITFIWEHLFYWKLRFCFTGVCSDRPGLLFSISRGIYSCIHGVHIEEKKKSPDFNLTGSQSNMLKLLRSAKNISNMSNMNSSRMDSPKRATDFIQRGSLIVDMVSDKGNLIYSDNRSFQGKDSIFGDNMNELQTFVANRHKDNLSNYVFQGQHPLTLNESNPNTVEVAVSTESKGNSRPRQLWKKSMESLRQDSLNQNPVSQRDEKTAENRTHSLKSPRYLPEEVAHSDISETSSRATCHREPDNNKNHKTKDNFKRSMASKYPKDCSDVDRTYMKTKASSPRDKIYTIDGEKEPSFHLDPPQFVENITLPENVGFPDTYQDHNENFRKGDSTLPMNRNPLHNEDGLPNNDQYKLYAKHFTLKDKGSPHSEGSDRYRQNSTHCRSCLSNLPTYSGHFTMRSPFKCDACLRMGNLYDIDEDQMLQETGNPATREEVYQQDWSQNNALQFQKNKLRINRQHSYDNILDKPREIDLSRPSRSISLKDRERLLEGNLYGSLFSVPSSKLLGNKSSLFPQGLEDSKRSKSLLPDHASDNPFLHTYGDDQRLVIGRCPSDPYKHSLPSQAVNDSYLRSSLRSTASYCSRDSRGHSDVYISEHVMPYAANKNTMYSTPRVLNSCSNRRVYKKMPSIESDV

As for `CCOc1cc(Cl)c(Cl)c(/C=N/NC(=O)c2ccccc2Br)c1O` [Npam43, (E)-2-bromo-N′-(2,3-dichloro-5-ethoxy-6-hydroxybenzylidene)benzohydrazide], the “Net Difference potentiation” value is −93.9±10.3% at GluN1^L135Q/GluN2A^F115S (GluN1 L135Q/GluN2A F115S double mutation, normalized to wild-type); −52.5 ± 0.20% on GluN1/GluN2A^P79A (normalized to wild-type); −67.4±11.8% at GluN1/GluN2A^F115S (normalized to wild-type); −77.5±2.12% at GluN1^L135Q/GluN2A (normalized to wild-type). Besides, the Relative potentiation is on record as 12.7 ± 1.8% at GluN1^L135Q/GluN2A^F115S (Table 3, GluN1 L135Q/GluN2A F115S); 99.3 ± 2.8% at GluN1/GluN2A^P79A (Table 3); 68.1 ± 14.1% at GluN1/GluN2A^F115S (Table 3); 47.1 ± 2.8% on GluN1^L135Q/GluN2A (Table 3). Further, the NMDA-induced excitotoxicity entry with cortical neurons [1] is listed as “reduced”. Also, the “H2O2-induced non-NMDAR dependent cytotoxicity” value in the data set on cortical neurons [2] is recorded as “reduced”.
